Test results: US5436273A, “Psychoactive propargylamine derivatives used in the treatment of anxiety, psychotic states or aggression” (Lowchol Scientific, Inc., priority 1993, dated 1995)
Entries after “also recorded” stand apart in the source; their conditions may differ. Where two headings read alike, the source gives them in different places.

Legend:
[1] = system: spontaneous motor activity in mice; experiment: Inhibition of spontaneous motor activity in mice; assay type: in vivo, CD #1 mice; details: for ED50: Mus musculus, ip, 0.5 h, i.p., 30 minutes
Description: 4. Inhibition of Spontaneous Motor Activity in Mice
Female CD #1 mice (20-30 g) are used for this experiment. The effect of the compound to be studied on spontaneous activity was evaluated by an automated […] XYZ system. This system allows the simultaneous quantification of the following parameters:
number of stereotypic movements;
number of vertical movements;
number of clockwise revolutions; and
number of counterclockwise revolutions.
Two animals are studied simultaneously, one treated and one control. After a 2 hour period of acclimatization to the room, a first activity count of 10 minutes duration is perfomed. The compound to be studied is then administered i.p. and the spontaneous activity is reevaluated 30 minutes later over a period of 10 minutes.

[2] = system: aggressive behavior of combative mice; experiment: Persistence of antiaggressive effect; assay type: in vivo; details: 10 mg/kg i.p. daily for five days, FIG. 3
Excerpt: 12. Persistence of Antiaggressive Effect

[3] = system: motor coordination (rotarod) in mice; details: mouse, in vivo
[4] = system: aggressive behavior of combative mice; experiment: Duration of antiaggressive effect; assay type: in vivo; details: single dose 10 mg/kg i.p., FIG. 2
Excerpt: 11. Duration of Antiaggressive Effect

[5] = Vapor pressure at room temperature; assay type: physicochemical; details: free base
[6] = Effect on body temperature in mice; assay type: in vivo, CD #1 mice; details: for Temp. Difference from Control: one hour
Description: 9. Effect on Body Temperature in Mice
Female CD #1 mice (20-30 g) are used. Rectal temperature is recorded before and one hour after s.c. administration of the compound to be studied (N=8/doses×4 doses). The solvent used is sterile water for intravenous injection.
The results which are reported in Table 9 are expressed in terms of the variation of temperature for different doses. Buspirone was tested on Sprague Dawley rats.

Acute toxicity test = details: mouse, in vivo, ip
Description: CD #1 mice (20-30 g) are used for this test. The animals are individualy housed in glass beakers for a 2 hour period of acclimatization without food and water.

in vivo = details: mouse, ip
[7] = system: righting reflex / ethanol narcosis in mice; experiment: Potentiation of sleeping time induced by ethanol in mice; assay type: in vivo, CD #1 mice; details: for percentage of animals displaying a loss of the righting reflex: with ethanol
Description: 7. Potentiation of Sleeping Time Induced by Ethanol in Mice
This test was done with male CD #1 mice of 25-35 g. The mice are injected intraperitoneally (8 mice per dose). A subhypnotic dose of ethanol (12 ml/kg of 50% ethanol solution) is administered orally 30 minutes later.
The loss of the righting reflex is evaluated, for each animal, 30 minutes after the administration of the alcohol. It is considered that there is a potentialization of ethanol narcosis if the righting time exceeded 30 seconds.
The results which are reported in Table 7 are expressed in terms of the percentage of animals displaying a loss of the righting reflex versus the administered dose. Chlorpromazine (5 mg/kg i.p.) is used as a standard.

[8] = system: conditioned avoidance response in rats; experiment: Inhibition of conditioned avoidance response in rats; assay type: in vivo, Sprague Dawley rats
Excerpt: 6. Inhibition of Conditioned Avoidance Response in Rats
Male Sprague Dawley rats (200-250 g) are trained to avoid an electric foot shock, by continuously changing room with the appropriate visuals and auditory signals, in an automatic 2-way conditioned avoidance apparatus (Coulbourn Instrument Co.). Only the animals that perform at least a 70% avoidance (3 successive training sessions) are kept for the experiment.
The day of the experiment, the selected animals are submitted to a pre-treatment control session. The compound to be studied is then administered i.p. and the animals are placed back in the apparatus for evaluation 30 minutes later. Diazepam was used as a standard.

[9] = Plasma concentration in combative mice as a function of time; assay type: in vivo; details: 10 mg/kg i.p.
Description: A calibration curve is established using mouse blood plasma. Two samples are used for each concentration. The method used is as follows.
200 μl of plasma are taken and denaturated with 400 μl of acetonitrile. 500 μl of the clear liquid is taken.
A derivative is made with 50 μl of orthophthalaldehyde (0.05M) in a test tube and 25 μl of the solution is injected into a high performance liquid chromatography apparatus after 30 minutes.
3-Amino-4-pentyne is used as standard.
The following equation describes the calibration curve: […]
The concentration of compound N^o 3 in the plasma is given by the following equation: [formula] B. Evaluation in Vivo
The pharmacokinetic profile is established in combative mice.
(§1) The mice are placed together, in pairs, for 5 minutes. This pairing is performed 10, 25, 55, 85 and 115 minutes after the administration of compound N^o 3. One minute after each of the 5 minute periods of placing the animals together, three pairs of animals are anesthetized with ether and guillotined in order to determine the concentration of compound N^o 3 in the plasma. The plasma sample is prepared by centrifugation (16,000 G) of 800 μl of blood to which 50 μl of EDTA Na4 (0.1M) is added. The inhibition of aggressive behavior at the different times in which the animals are placed together and the number of pairs evaluated is shown in the following Table: […]

[10] = system: aggressive behavior in combative mice; experiment: Inhibition of aggressive behavior in combative mice at various times (correlation with plasma concentration); assay type: in vivo; details: 10 mg/kg i.p.; for inhibition at 10 mg/kg: Mus musculus, ip
Description: as §1

C#CC(C)N (stereo not shown) [Compound 3, 2-Amino-3-butyne]
inhibition of spontaneous motor activity (in words) [1]: more active than buspirone in mice
ED50 ([1]; read-out: ED50, clockwise revolutions): 3.3 ± 1.6 mg/kg
ED50 ([1]; read-out: ED50, counterclockwise revolutions): 2.7 ± 1.9 mg/kg
ED50 ([1]; read-out: ED50, horizontal activity): 4.3 ± 2.2 mg/kg
ED50 ([1]; read-out: ED50, movement time): 8.1 ± 4.5 mg/kg
ED50 ([1]; read-out: ED50, number of movements): 11.8 ± 5.9 mg/kg
ED50 ([1]; read-out: ED50, number of stereotypic movements): 5.5 ± 2.2 mg/kg
ED50 ([1]; read-out: ED50, stereotypy time): 3.8 ± 1.6 mg/kg
ED50 ([1]; read-out: ED50, total distance): 5.5 ± 3.4 mg/kg
ED50 ([1]; read-out: ED50, vertical activity): 2.5 ± 1.2 mg/kg
ED50 ([1]; read-out: ED50, vertical movements): 3.2 ± 1.6 mg/kg
ED50 ([1]; read-out: ED50, vertical time): 2.6 ± 1.5 mg/kg
persistence of inhibitory effect on aggressive behavior (in words) [2]: also persists when the compound is administered on a daily basis
neurotoxicity / motor activity (in words) [3]: much less neurotoxic than buspirone (rot TD50 =135 mg/kg p.o.) and diazepam
duration of inhibitory effect on aggressive behavior [4]: approximately 4 hours
vapor pressure (in words) [5]: high vapor pressure at room temperature
Temp. Difference from Control ([6]; dose 10, s.c.): -2.6
Temp. Difference from Control ([6]; dose 30, s.c.): -2.5
Temp. Difference from Control ([6]; dose 100, s.c.): -4.1
hypothermia (in words) ([6]; s.c.): slight, transient hypothermia comparable to that induced by buspirone
LD50 (Acute toxicity test): 1370 mg/kg
TD50 at 0.5 h (in vivo): 720 mg/kg
percentage of animals displaying a loss of the righting reflex ([7]; 10 mg/kg i.p.): 50%
percentage of animals displaying a loss of the righting reflex ([7]; 30 mg/kg i.p.): 50%
percentage of animals displaying a loss of the righting reflex ([7]; 100 mg/kg i.p.): 25%
potentiation of ethanol (in words) ([7]; subhypnotic dose of ethanol, mice): active at t = 30 min; also recorded: potentiate the effect of a subhypnotic effect dose of ethanol
conditioned avoidance response, first exposure ([8]; 10 mg/kg i.p., first exposure): 3%
conditioned avoidance response, re-exposed ([8]; 10 mg/kg i.p., re-exposed): 29%
ED50 ([8]; Rattus norvegicus, ip, 0.5 h, calculated with repeated exposure, r^2 = 0.43): 21.5 ± 11.2 mg/kg
inhibition of conditioned avoidance response (in words) ([8]; rats): very active at first; also recorded: much less active if re-; also recorded: inhibit conditioned avoidance in rats, but are less active than diazepam; also recorded: loss of activity in the case of compound N^o 3 after the first exposure to the drug; also recorded: does not seem to impair the animal's sensory discrimination at doses 2 to 3 times above that which produces a quieting effect with repeated exposure
elimination / plasma level (in words) ([9]; FIG. 1): elimination of compound N^o 3 is very rapid; also recorded: not detectable, by the method used, 90 minutes after the injection
concentration at […] ([9]; mouse, plasma, ip, 15 min, N = 6, read-out: plasma concentration ± S.E.): 4800 ± 400 µM
concentration at 0.5 h ([9]; mouse, plasma, ip, 30 min, N = 6, read-out: plasma concentration ± S.E.): 2000 ± 200 µM
concentration at 1 h ([9]; mouse, plasma, ip, 60 min, N = 5, read-out: plasma concentration ± S.E.): 900 ± 200 µM
concentration at 1.5 h ([9]; mouse, plasma, ip, 90 min, N = 6, read-out: plasma concentration ± S.E.): < 5 µM
concentration at 2 h ([9]; mouse, plasma, ip, 120 min, N = 6, read-out: plasma concentration ± S.E.): < 5 µM
antiaggressive activity over time (in words) [10]: noticeable activity after a few minutes; also recorded: activity is maximal when the plasma concentration is no longer detectable
time of maximum antiaggressive activity [10]: 60 min
inhibition at 10 mg/kg ([10]; 0.5 h, 30 min, 12 pairs): 87.5%
inhibition at 10 mg/kg ([10]; 1 h, 60 min, 9 pairs): 100%
inhibition at 10 mg/kg ([10]; 1.5 h, 90 min, 3 pairs): 100%
inhibition at 10 mg/kg ([10]; 2 h, 120 min, 3 pairs): 100%
inhibition at 10 mg/kg ([10]; 15 min, 15 pairs): 75%
